From patent US11053242B2, “[9,10-dimethoxy-3-(2-methylpropyl)-1H,2H,3H,4H,6H,7H,11BH-pyrido-[2,1-a]isoquinolin-2-yl]methanol and compounds, compositions and methods relating thereto” (Neurocrine Biosciences, Inc., priority 2015, dated 2021)

Target: VMAT2 (human platelet homogenate) (Homo sapiens (Human), UniProt Q05940)
Test: Human VMAT2 Ki, slightly modified competition binding procedure (Table 11);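 further: competition binding with 90 min incubation at 25 °C, after which filter-retained radioligand was measured by scintillation counting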
Conditions: 10 nM 3H-dihydrotetrabenazine
Method: Following incubation at 25° C. for 90 minutes, bound radioligand was collected by rapid filtration onto GF/B glass fiber filters using a Unifilter-96 Harvester (PerkinElmer). Filter plates were pre-treated with 0.1% polyethylenimine and allowed to dry overnight, and following harvesting the filter plates were washed with 800 d VMAT2 binding buffer. Bound radioligand was quantified by scintillation counting using a Topcount NXT (PerkinElmer).

Chain of VMAT2 (human platelet homogenate) (Q05940 whole entry): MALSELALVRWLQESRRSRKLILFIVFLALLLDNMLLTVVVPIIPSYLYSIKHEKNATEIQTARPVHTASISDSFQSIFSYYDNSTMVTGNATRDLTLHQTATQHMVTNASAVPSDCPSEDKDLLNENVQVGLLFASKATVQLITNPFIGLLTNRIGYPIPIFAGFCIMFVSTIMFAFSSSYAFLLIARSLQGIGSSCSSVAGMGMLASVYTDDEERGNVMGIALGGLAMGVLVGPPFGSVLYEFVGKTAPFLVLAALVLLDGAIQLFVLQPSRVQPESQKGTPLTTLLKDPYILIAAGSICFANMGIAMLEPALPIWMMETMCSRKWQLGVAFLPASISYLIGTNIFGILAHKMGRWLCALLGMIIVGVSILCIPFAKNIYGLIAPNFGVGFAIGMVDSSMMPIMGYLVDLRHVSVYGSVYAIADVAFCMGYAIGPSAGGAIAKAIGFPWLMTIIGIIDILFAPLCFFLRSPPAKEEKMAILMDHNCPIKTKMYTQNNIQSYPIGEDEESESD

SMILES | Ki
COc1cc2c(cc1OC)[C@H]1C[C@@H](COC(=O)[C@@H](N)c3ccccc3)[C@H](CC(C)C)CN1CC2 [Compound 4-33, [(2R,3S,11bR)-9,10-dimethoxy-3-(2-methylpropyl)-1H,2H,3H,4H,6H,7H,11bH-pyrido[2,1-a]isoquinolin-2-yl]methyl (2S)-2-amino-2-phenylacetate] | 10 to 500 nM
COc1cc2c(cc1OC)[C@H]1C[C@@H](COC(=O)N3CCN(C)CC3)[C@H](CC(C)C)CN1CC2 [Compound 5-7, [(2R,3S,11bR)-9,10-dimethoxy-3-(2-methylpropyl)-1H,2H,3H,4H,6H,7H,11bH-pyrido[2,1-a]isoquinolin-2-yl]methyl 4-methylpiperazine-1-carboxylate] | > 500 nM
COc1cc2c(cc1OC)[C@H]1C[C@@H](COC(=O)N3CCN(S(C)(=O)=O)CC3)[C@H](CC(C)C)CN1CC2 [Compound 5-15, [(2R,3S,11bR)-9,10-dimethoxy-3-(2-methylpropyl)-1H,2H,3H,4H,6H,7H,11bH-pyrido[2,1-a]isoquinolin-2-yl]methyl 4-methanesulfonylpiperazine-1-carboxylate] | 10 to 500 nM
COc1cc2c(cc1OC)[C@H]1C[C@@H](COC(=O)N3CCN(C4CCCCC4)CC3)[C@H](CC(C)C)CN1CC2 [Compound 5-18, [(2R,3S,11bR)-9,10-dimethoxy-3-(2-methylpropyl)-1H,2H,3H,4H,6H,7H,11bH-pyrido[2,1-a]isoquinolin-2-yl]methyl 4-cyclohexylpiperazine-1-carboxylate] | < 10 nM
COc1cc2c(cc1OC)[C@H]1C[C@@H](COC(=O)N3C[C@@H]4C[C@H]3CO4)[C@H](CC(C)C)CN1CC2 [Compound 5-24, [(2R,3S,11bR)-9,10-dimethoxy-3-(2-methylpropyl)-1H,2H,3H,4H,6H,7H,11bH-pyrido[2,1-a]isoquinolin-2-yl]methyl(1S,4S)-2-oxa-5-azabicyclo[2.2.1]heptane-5-carboxylate] | < 10 nM
COc1cc2c(cc1OC)[C@H]1C[C@@H](COC(=O)N(C)C(C)C(=O)O)[C@H](CC(C)C)CN1CC2 (stereo partly drawn) [Compound 5-28, 2-[({[(2R,3S,11bR)-9,10-dimethoxy-3-(2-methylpropyl)-1H,2H,3H,4H,6H,7H,11bH-pyrido[2,l-a]isoquinolin-2-yl]methoxy}carbonyl)(methyl)amino]propanoic acid] | > 500 nM

Continued, values first:

Ki | SMILES
10 to 500 nM | COc1cc2c(cc1OC)[C@H]1C[C@@H](COC(=O)C3COCCN3)[C@H](CC(C)C)CN1CC2 (stereo partly drawn) [Compound 4-32, [(2R,3S,11bR)-9,10-dimethoxy-3-(2-methylpropyl)-1H,2H,3H,4H,6H,7H,11bH-pyrido[2,1-a]isoquinolin-2-yl]methyl morpholine-3-carboxylate]
< 10 nM | COc1cc2c(cc1OC)[C@H]1C[C@@H](COC(=O)CC3CCCCN3)[C@H](CC(C)C)CN1CC2 (stereo partly drawn) [Compound 4-34, [(2R,3S,11bR)-9,10-dimethoxy-3-(2-methylpropyl)-1H,2H,3H,4H,6H,7H,11bH-pyrido[2,1-a]isoquinolin-2-yl]methyl 2-(piperidin-2-yl)acetate]
< 10 nM | COc1cc2c(cc1OC)[C@H]1C[C@@H](COC(=O)C3(C)CCNCC3)[C@H](CC(C)C)CN1CC2 [Compound 4-35, [(2R,3S,11bR)-9,10-dimethoxy-3-(2-methylpropyl)-1H,2H,3H,4H,6H,7H,11bH-pyrido[2,1-a]isoquinolin-2-yl]methyl 4-methylpiperidine-4-carboxylate]
< 10 nM | COc1cc2c(cc1OC)[C@H]1C[C@@H](COC(=O)CCN3CCNCC3)[C@H](CC(C)C)CN1CC2 [Compound 4-37, [(2R,3S,11bR)-9,10-dimethoxy-3-(2-methylpropyl)-1H,2H,3H,4H,6H,7H,11bH-pyrido[2,1-a]isoquinolin-2-yl]methyl 3-(piperazin-1-yl)propanoate]
< 10 nM | COc1cc2c(cc1OC)[C@H]1C[C@@H](COC(=O)N3CCNC(=O)C3C)[C@H](CC(C)C)CN1CC2 (stereo partly drawn) [Compound 5-21, [(2R,3S,11bR)-9,10-dimethoxy-3-(2-methylpropyl)-1H,2H,3H,4H,6H,7H,11bH-pyrido[2,1-a]isoquinolin-2-yl]methyl 2-methyl-3-oxopiperazine-1-carboxylate]
